Target: T1, MMP-2 (Homo sapiens, UniProt P08253)
T1 sequence (P08253 110-660): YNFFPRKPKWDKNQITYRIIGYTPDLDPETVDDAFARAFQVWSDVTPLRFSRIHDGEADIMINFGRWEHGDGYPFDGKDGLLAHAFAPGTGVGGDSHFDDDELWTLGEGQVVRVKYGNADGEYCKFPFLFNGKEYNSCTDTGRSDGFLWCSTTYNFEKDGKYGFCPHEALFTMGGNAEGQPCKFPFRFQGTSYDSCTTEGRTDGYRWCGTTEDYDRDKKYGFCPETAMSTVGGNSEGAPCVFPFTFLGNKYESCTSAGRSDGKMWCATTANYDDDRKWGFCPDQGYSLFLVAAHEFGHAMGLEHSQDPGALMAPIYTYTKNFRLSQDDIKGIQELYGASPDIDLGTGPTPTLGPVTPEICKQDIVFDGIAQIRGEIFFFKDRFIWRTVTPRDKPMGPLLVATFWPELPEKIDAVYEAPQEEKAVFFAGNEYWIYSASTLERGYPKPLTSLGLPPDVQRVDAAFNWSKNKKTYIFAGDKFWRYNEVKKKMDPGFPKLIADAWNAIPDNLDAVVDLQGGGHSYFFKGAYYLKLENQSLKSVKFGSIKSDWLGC
Assay: MMP-2-responsive fluorescence activation and cleavage (LC-MS)
Assay type: biochemical
Conditions: 1 μM; for on/off ratio (fluorescence intensity at 25 h / initial intensity): MMP-2 only (2 μg mL-1), PBS pH 7.4, 0.1% Tween 80, 37 °C
Experimental: To examine the response of PMB 1 toward MMP-2 and cathepsin B, its absorption and fluorescence spectra were monitored in the presence of these stimuli at 37 °C over a period of 25 h, using the non-cleavable analogue 14 as the negative control. For studying the MMP-2-responsive effect, MMP-2 (2 μg mL^–1) in PBS at pH 7.4 was used to mimic the high serum levels of this enzyme in patients with cancer.[68] The effect of cathepsin B (using a concentration of 1 unit mL^–1) was studied in the working buffer mentioned above at pH 5.0 to mimic the lysosomal environment.[69] […] Similar results were obtained for the study using cathepsin B in the buffer (Figure S8e–h). […] The more flexible ring-opening structure, however, might slightly increase the separation of the two moieties, leading to a lower FRET efficiency,[70] which could explain the small increase in fluorescence intensity. For comparison, the effect of these enzymes was also studied for 14. As expected, both the absorption and fluorescence spectra were not changed toward these two enzymes (Figure S9).
The fluorescence recovery was then determined for 1 under the aforementioned conditions, assuming that the fluorescence intensity of 8 at the same concentration in the same medium was the maximum fluorescence intensity that could be recovered. […] In addition, we also determined the corresponding on/off ratios by dividing the fluorescence intensity at 25 h by the initial fluorescence intensity under each of these conditions. […]
To further confirm that the restoration of fluorescence emission and singlet oxygen generation of PMB 1 was due to the cleavage by the enzymes, LC–MS was used to analyze the reaction mixtures (Figure 4). […] Similarly, for the mixture obtained after treating 1 (1 μM) with cathepsin B (1 unit mL^–1) in the working buffer at pH 5.0 for 6 h, a new signal with virtually the same retention time was detected in the chromatogram (Figure 4a–c). […]
All of the solutions were stirred continuously at 37 °C. The ir electronic absorption and fluorescence spectra were monitored over a period of 25 h. […]

SMILES	LC-MS signal of intact compound after enzyme treatment (MMP-2 (2 μg mL-1) in PBS, 6 h, new signal at 14.7 min (15))	on/off ratio (fluorescence intensity at 25 h / initial intensity)
CCN(CC)c1ccc2nc3ccc(/N=N/c4ccc(N(C)CCCNC(=O)OC[C@@H]5[C@@H]6CCc7nnn(CC(=O)NCCCC[C@@H]8NC(=O)CNC(=O)[C@H](CCCCN)NC(=O)[C@H](CCCNC(=N)N)NC(=O)[C@H](C(C)C)NC(=O)CNC(=O)[C@H](CC(C)C)NC(=O)[C@@H]9CCCN9C(=O)[C@H](CCCCN)NC(=O)[C@@H](N)CSCc9cc(COc%10ccc(C%11=C%12C(C)=C(I)C(/C=C/c%13ccc(OCCOCCOCCOC)cc%13)=[N+]%12[B-](F)(F)n%12c(/C=C/c%13ccc(OCCOCCOCCOC)cc%13)c(I)c(C)c%12%11)cc%10)cc(c9)CSC[C@@H](C(N)=O)NC(=O)[C@H](CCCCN)NC(=O)[C@H](CCCCN)NC(=O)CNC(=O)[C@H](CC(C)C)NC(=O)[C@H](Cc9ccccc9)NC(=O)CNC(=O)[C@H](CCCCN)NC(=O)CNC8=O)c7CC[C@@H]65)cc4)cc3[n+](-c3ccccc3)c2c1 [compound 1]	disappeared	ca. 2.7
CCN(CC)c1ccc2nc3ccc(/N=N/c4ccc(N(C)CCCNC(=O)OC[C@@H]5[C@@H]6CCc7nnn(CC(=O)NCCCC[C@@H]8NC(=O)CNC(=O)[C@H](CCCCN)NC(=O)CNC(=O)CNC(=O)CNC(=O)CNC(=O)CNC(=O)[C@H](CCCCN)NC(=O)[C@@H](N)CSCc9cc(COc%10ccc(C%11=C%12C(C)=C(I)C(/C=C/c%13ccc(OCCOCCOCCOC)cc%13)=[N+]%12[B-](F)(F)n%12c(/C=C/c%13ccc(OCCOCCOCCOC)cc%13)c(I)c(C)c%12%11)cc%10)cc(c9)CSC[C@@H](C(N)=O)NC(=O)[C@H](CCCCN)NC(=O)[C@H](CCCCN)NC(=O)CNC(=O)CNC(=O)CNC(=O)CNC(=O)[C@H](CCCCN)NC(=O)CNC8=O)c7CC[C@@H]65)cc4)cc3[n+](-c3ccccc3)c2c1 [compound 14]		below 1.5
